According to PubChem BioAssay AID1918948 (Molecular Pharmacology Branch, DTP, NCI, 2023):
Several values for one entry are separate records, joined by “and”; a condition that tells them apart may be missing. Equal values may be shown once.

System: K-562 leukemia growth, % test/control
Assay: Anticancer human tumor K-562 cell line growth inhibition;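 note: spheroids exposed to compounds for 7 days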;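 for viability, T/C: 100% = DMSO vehicle wells and lower values mean fewer viable cells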
Settings: spheroids with HUVEC and MSC; for viability, T/C: stronger effect = lower value
Outline: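 Multicellular complex spheroids of tumor cells with human endothelial cells (HUVEC) and mesenchymal stem cells; the LSD1 inhibitor iadademstat was combined with standard-of-care or investigational agents. Top concentration at or near clinical Cmax, half-log dilutions; final DMSO ≤0.25%.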

[1] = curve of first compound, second compound 0.1 µM
[2] = curve of first compound, second compound 0.316 µM
[3] = curve of first compound, second compound 1 µM
[4] = curve of first compound, second compound 3.16 µM
[5] = curve of first compound, second compound 10 µM
[6] = second compound 0.1 µM, first compound 0.0316 µM
[7] = second compound 0.1 µM, first compound 0.1 µM
[8] = second compound 0.1 µM, first compound 0.316 µM
[9] = second compound 0.1 µM, first compound 1 µM
[10] = second compound 0.316 µM, first compound 0.0316 µM
[11] = second compound 0.316 µM, first compound 0.1 µM
[12] = second compound 0.316 µM, first compound 0.316 µM
[13] = second compound 0.316 µM, first compound 1 µM
[14] = second compound 1 µM, first compound 0.0316 µM
[15] = second compound 1 µM, first compound 0.1 µM
[16] = second compound 1 µM, first compound 0.316 µM
[17] = second compound 1 µM, first compound 1 µM
[18] = second compound 3.16 µM, first compound 0.0316 µM
[19] = second compound 3.16 µM, first compound 0.1 µM
[20] = second compound 3.16 µM, first compound 0.316 µM
[21] = second compound 3.16 µM, first compound 1 µM
[22] = second compound 10 µM, first compound 0.0316 µM
[23] = second compound 10 µM, first compound 0.1 µM
[24] = second compound 10 µM, first compound 0.316 µM
[25] = second compound 10 µM, first compound 1 µM

Molecule `CC1(C)CCC(CN2CCN(c3ccc(C(=O)NS(=O)(=O)c4ccc(NCC5CCOCC5)c([N+](=O)[O-])c4)c(Oc4cnc5[nH]ccc5c4)c3)CC2)=C(c2ccc(Cl)cc2)C1` + NC1CC1c1ccc(-c2cccc(O)c2)cc1 has an IC50 [1] of 4.65 µM, an IC50 [2] of 4.7 µM and an IC50 [3] of 4.52 µM. The IC50 [4] was 4.47 µM, the IC50 [5] was 3.19 µM and the viability, T/C [6] was 112%. The viability, T/C [7] was 114%, the viability, T/C [8] was 118% and the viability, T/C [9] was 121%. For the same molecule, the viability, T/C (second compound 0.1 µM, first compound 3.16 µM) was 74.6%, the viability, T/C (second compound 0.1 µM, first compound 10 µM) was 1.4% and the viability, T/C [10] was 104%. For the same molecule, the viability, T/C [11] was 109%, the viability, T/C [12] was 110% and the viability, T/C [13] was 114%. It also gave a viability, T/C (second compound 0.316 µM, first compound 3.16 µM) of 75.4%, a viability, T/C (second compound 0.316 µM, first compound 10 µM) of 1.76% and a viability, T/C [14] of 102%. The viability, T/C [15] was 106%, the viability, T/C [16] was 106% and the viability, T/C [17] was 108%. The viability, T/C (second compound 1 µM, first compound 3.16 µM) was 71.8%, the viability, T/C (second compound 1 µM, first compound 10 µM) was 1.59% and the viability, T/C [18] was 105%. The viability, T/C [19] was 105%, the viability, T/C [20] was 107% and the viability, T/C [21] was 102%. The viability, T/C (second compound 3.16 µM, first compound 3.16 µM) was 70.7%, the viability, T/C (second compound 3.16 µM, first compound 10 µM) was 1.97% and the viability, T/C [22] was 102%. It also gave a viability, T/C [23] of 104%, a viability, T/C [24] of 105% and a viability, T/C [25] of 104%. It also gave a viability, T/C (second compound 10 µM, first compound 3.16 µM) of 50.4% and a viability, T/C (second compound 10 µM, first compound 10 µM) of 1.78%.

For `CCN(c1cc(-c2ccc(CN3CCOCC3)cc2)cc(C(=O)NCc2c(C)cc(C)[nH]c2=O)c1C)C1CCOCC1` + NC1CCC(NC2CC2c2ccccc2)CC1, the IC50 [1] was over 3 µM, the IC50 [2] was over 3 µM and the IC50 [3] was over 3 µM. The IC50 [4] was over 3 µM, the IC50 [5] was 2.22 µM and the viability, T/C (second compound 0.1 µM, first compound 0.00949 µM) was 112%. The viability, T/C (second compound 0.1 µM, first compound 0.03 µM) was 107%, the viability, T/C (second compound 0.1 µM, first compound 0.0949 µM) was 106% and the viability, T/C (second compound 0.1 µM, first compound 0.3 µM) was 106%. It also gave a viability, T/C (second compound 0.1 µM, first compound 0.949 µM) of 106%, a viability, T/C (second compound 0.1 µM, first compound 3 µM) of 98.8% and a viability, T/C (second compound 0.316 µM, first compound 0.00949 µM) of 112%. It also gave a viability, T/C (second compound 0.316 µM, first compound 0.03 µM) of 109%, a viability, T/C (second compound 0.316 µM, first compound 0.0949 µM) of 107% and a viability, T/C (second compound 0.316 µM, first compound 0.3 µM) of 108%. The viability, T/C (second compound 0.316 µM, first compound 0.949 µM) was 105%, the viability, T/C (second compound 0.316 µM, first compound 3 µM) was 101% and the viability, T/C (second compound 1 µM, first compound 0.00949 µM) was 113%. The viability, T/C (second compound 1 µM, first compound 0.03 µM) was 112%, the viability, T/C (second compound 1 µM, first compound 0.0949 µM) was 106% and the viability, T/C (second compound 1 µM, first compound 0.3 µM) was 109%. The viability, T/C (second compound 1 µM, first compound 0.949 µM) was 105%, the viability, T/C (second compound 1 µM, first compound 3 µM) was 99.5% and the viability, T/C (second compound 3.16 µM, first compound 0.00949 µM) was 113%. It also gave a viability, T/C (second compound 3.16 µM, first compound 0.03 µM) of 110%, a viability, T/C (second compound 3.16 µM, first compound 0.0949 µM) of 107% and a viability, T/C (second compound 3.16 µM, first compound 0.3 µM) of 106%. For the same molecule, the viability, T/C (second compound 3.16 µM, first compound 0.949 µM) was 104%, the viability, T/C (second compound 3.16 µM, first compound 3 µM) was 95% and the viability, T/C (second compound 10 µM, first compound 0.00949 µM) was 103%. The viability, T/C (second compound 10 µM, first compound 0.03 µM) was 101%, the viability, T/C (second compound 10 µM, first compound 0.0949 µM) was 93.7% and the viability, T/C (second compound 10 µM, first compound 0.3 µM) was 86%. It also gave a viability, T/C (second compound 10 µM, first compound 0.949 µM) of 69.4% and a viability, T/C (second compound 10 µM, first compound 3 µM) of 42.9%.

`COc1cc(Nc2ncc3c(n2)-c2ccc(Cl)cc2C(c2c(F)cccc2OC)=NC3)ccc1C(=O)O` + NC1CC1c1ccc(-c2cccc(O)c2)cc1 gave an IC50 [1] of under 0.00316 µM, an IC50 [2] of under 0.00316 µM and an IC50 [3] of under 0.00316 µM. For the same molecule, the IC50 [4] was under 0.00316 µM, the IC50 [5] was under 0.00316 µM and the viability, T/C (second compound 0.1 µM, first compound 0.00316 µM) was 31.1%. For the same molecule, the viability, T/C (second compound 0.1 µM, first compound 0.01 µM) was 35.4%, the viability, T/C [6] was 35.4% and the viability, T/C [7] was 27.7%. The viability, T/C [8] was 11.1%, the viability, T/C [9] was 5.75% and the viability, T/C (second compound 0.316 µM, first compound 0.00316 µM) was 22.8%. The viability, T/C (second compound 0.316 µM, first compound 0.01 µM) was 27.5%, the viability, T/C [10] was 27.8% and the viability, T/C [11] was 18.3%. It also gave a viability, T/C [12] of 8.22%, a viability, T/C [13] of 4.56% and a viability, T/C (second compound 1 µM, first compound 0.00316 µM) of 20.2%. It also gave a viability, T/C (second compound 1 µM, first compound 0.01 µM) of 24.4%, a viability, T/C [14] of 22.4% and a viability, T/C [15] of 13.9%. The viability, T/C [16] was 6.56%, the viability, T/C [17] was 4.05% and the viability, T/C (second compound 3.16 µM, first compound 0.00316 µM) was 15.5%. For the same molecule, the viability, T/C (second compound 3.16 µM, first compound 0.01 µM) was 21%, the viability, T/C [18] was 21.4% and the viability, T/C [19] was 14%. The viability, T/C [20] was 6.72%, the viability, T/C [21] was 4.65% and the viability, T/C (second compound 10 µM, first compound 0.00316 µM) was 10%. It also gave a viability, T/C (second compound 10 µM, first compound 0.01 µM) of 16.6%, a viability, T/C [22] of 20.3% and a viability, T/C [23] of 11.9%. It also gave a viability, T/C [24] of 6.15% and a viability, T/C [25] of 3.42%.

In the case of `CC(C)CC(NC(=O)C(Cc1ccccc1)NC(=O)c1cnccn1)B(O)O` (stereo unspecified), the viability, T/C (compound 0.000316 µM) is reported as 98.7% and 102%, the viability, T/C (compound 0.00316 µM) is reported as 18.8% and 1.3% and the viability, T/C (compound 0.01 µM) is reported as 1.39% and 0.58%. For the same molecule, the viability, T/C (compound 0.0316 µM) was 1.89% and 0.51%, the viability, T/C (compound 0.1 µM) was 3.68% and 0.49% and the IC50 (curve of compound) was 0.002 µM and 0.000584 µM.
